# Experiment: not given
# Conditions: erythromycin crystals of CN1513864A, recrystallized from acetone and water; cited from earlier work
row,Substance,microbiological titre
1,erythromycin [erythromycin crystals],less than 930 μ/mg

# Experiment: microbiological titre of erythromycin crystals
# Assay type: cell-based
# Conditions: dried erythromycin crystals recrystallized from dichloromethane-containing solvent
row,Substance,microbiological titre
1,erythromycin [Example 1],948 μ/mg
2,erythromycin [Example 2],955 μ/mg
3,erythromycin [Example 4],946 μ/mg
4,erythromycin [Example 5],943 μ/mg
5,erythromycin [Example 3],941 μ/mg

# From patent US8436154B2, “Crystallizing method of erythromycin” (Sunshine Lake Pharma Co., Ltd., priority 2008, dated 2013)
